Activity calls are given as the source filed them. The calls are words filed in the database; no cut-off is given here.
What was measured:
Mus musculus [1] = assay: Anti-alzheimer activity against APP/PS1 dE9 double transgenic mouse model assessed as time spent in platform quadrant at 30 mg/kg, po administered 3 times/week for 1 month and measured after 40 to 45 days of treatment by Morris water maze test (reference value: 11.06 +/- 1.53 %); format: functional; conditions: time 27 day
[2] = Half life in Sprague-Dawley rat at 1 mg/kg, iv measured upto 24 hrs by UPLC analysis; format: ADME, organism-based; conditions: in vivo
[3] = molecular target: Mitogen-activated protein kinase 9 (Homo sapiens, UniProt P45984); assay: Inhibition of human JNK2 incubated for 40 mins in presence of ATP and [gamma33P-ATP] by scintillation counting method
Sequence of Mitogen-activated protein kinase 9 (P45984 whole entry): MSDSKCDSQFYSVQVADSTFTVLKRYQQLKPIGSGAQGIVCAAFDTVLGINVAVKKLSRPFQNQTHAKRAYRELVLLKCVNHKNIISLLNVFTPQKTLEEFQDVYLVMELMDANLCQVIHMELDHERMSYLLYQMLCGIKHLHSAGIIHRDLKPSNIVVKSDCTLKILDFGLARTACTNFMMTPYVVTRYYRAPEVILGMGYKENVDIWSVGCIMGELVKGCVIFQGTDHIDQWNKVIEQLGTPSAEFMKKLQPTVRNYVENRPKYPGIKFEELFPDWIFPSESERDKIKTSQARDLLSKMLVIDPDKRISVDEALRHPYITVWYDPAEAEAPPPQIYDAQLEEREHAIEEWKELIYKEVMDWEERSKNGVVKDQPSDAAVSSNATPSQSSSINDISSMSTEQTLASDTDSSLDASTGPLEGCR

Mus musculus [4] = assay: Anti-alzheimer activity against homozygous 3 x Tg mouse model assessed as escape latency time at 30 mg/kg, po administered daily for 2 months and measured after 60 days of treatment by Passive avoidance test (reference value: 43.44 +/- 7.35 sec); format: functional; conditions: 1460 h
[5] = molecular target: T1, Dual specificity mitogen-activated protein kinase kinase 4 (Homo sapiens, UniProt P45985); assay: Inhibition of MKK4 (unknown origin) assessed as incorporation of 33P-ATP
T1 sequence (P45985 whole entry): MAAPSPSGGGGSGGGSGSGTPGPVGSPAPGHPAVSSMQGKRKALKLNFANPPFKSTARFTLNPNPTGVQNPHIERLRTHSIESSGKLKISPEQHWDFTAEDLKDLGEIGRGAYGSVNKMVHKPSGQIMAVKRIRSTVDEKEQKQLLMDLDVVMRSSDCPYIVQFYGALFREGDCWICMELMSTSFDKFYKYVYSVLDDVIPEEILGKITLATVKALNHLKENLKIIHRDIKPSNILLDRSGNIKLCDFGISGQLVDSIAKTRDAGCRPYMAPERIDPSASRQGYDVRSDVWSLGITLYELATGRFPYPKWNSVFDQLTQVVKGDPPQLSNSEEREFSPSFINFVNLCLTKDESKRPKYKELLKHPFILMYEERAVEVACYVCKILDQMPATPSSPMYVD

[6] = AUC in Sprague-Dawley rat at 1 mg/kg, iv measured upto 24 hrs by UPLC analysis; format: ADME, organism-based; design: dose 1 mg/kg, time < 24 hrs, route iv; conditions: in vivo
Mus musculus [7] = assay: Anti-alzheimer activity against APP/PS1 dE9 double transgenic mouse model assessed as escape latency time at 10 mg/kg, po administered 3 times/week for 1 month and measured after 27 days of treatment by Passive avoidance test (reference value: 18.5 +/- 2.3 sec); format: functional; conditions: time 27 day
Mus musculus [8] = assay: Anti-alzheimer activity against homozygous 3 x Tg mouse model assessed as spontaneous alteration at 30 mg/kg, po administered daily for 2 months and measured after 57 days of treatment by Y-maze test (reference value: 46.81 +/- 2.76%); format: functional; conditions: 1460 h
[9] = molecular target: Glycogen synthase kinase-3 beta (Homo sapiens, UniProt P49841); assay: Inhibition of human GSK3beta assessed as incorporation of 33P-ATP
Sequence of Glycogen synthase kinase-3 beta (P49841 whole entry): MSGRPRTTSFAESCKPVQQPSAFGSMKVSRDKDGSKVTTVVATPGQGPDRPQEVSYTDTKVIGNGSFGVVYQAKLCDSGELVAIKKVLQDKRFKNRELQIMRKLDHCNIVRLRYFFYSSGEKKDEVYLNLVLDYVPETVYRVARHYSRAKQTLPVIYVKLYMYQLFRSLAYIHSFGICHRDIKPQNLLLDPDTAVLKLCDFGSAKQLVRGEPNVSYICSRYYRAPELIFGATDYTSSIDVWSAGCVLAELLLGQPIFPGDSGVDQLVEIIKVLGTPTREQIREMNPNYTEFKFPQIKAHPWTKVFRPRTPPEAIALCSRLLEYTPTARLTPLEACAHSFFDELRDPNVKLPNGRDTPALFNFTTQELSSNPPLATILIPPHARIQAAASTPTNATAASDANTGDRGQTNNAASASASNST

[10] = Drug uptake in Sprague-Dawley rat brain at 30 mg/kg, po measured at Tmax; format: ADME, organism-based; conditions: in vivo
[11] = Oral bioavailability in Sprague-Dawley rat at 3 mg/kg measured upto 24 hrs by UPLC analysis; format: ADME, organism-based; conditions: in vivo
Mus musculus [12] = assay: Anti-alzheimer activity against homozygous 3 x Tg mouse model assessed as spontaneous alteration at 60 mg/kg, po administered daily for 2 month and measured after 57 days of treatment by Y-maze test (reference value: 46.81 +/- 2.76%); format: functional; conditions: time 2 months, 1460 h
[13] = Permeability of the compound by PAMPA-BBB assay; format: ADME; conditions: read-out: permeability
[14] = Toxicity in APP/PS1 mouse assessed as weight change at 30 mg/kg, po treated 3 times/week for 1 month; format: organism-based; conditions: in vivo, 730 h, time 1 months
[15] = Toxicity in APP/PS1 mouse assessed as abnormal symptoms at 10 mg/kg, po treated 3 times/week for 1 month; format: organism-based; conditions: in vivo, 730 h, time 1 months
[16] = Plasma concentration in Sprague-Dawley rat at 30 mg/kg, po measured at Tmax; format: ADME, organism-based
[17] = molecular target: Glycogen synthase kinase-3 alpha (Homo sapiens, UniProt P49840); assay: Inhibition of human GSK3alpha assessed as incorporation of 33P-ATP
Sequence of Glycogen synthase kinase-3 alpha (P49840 whole entry): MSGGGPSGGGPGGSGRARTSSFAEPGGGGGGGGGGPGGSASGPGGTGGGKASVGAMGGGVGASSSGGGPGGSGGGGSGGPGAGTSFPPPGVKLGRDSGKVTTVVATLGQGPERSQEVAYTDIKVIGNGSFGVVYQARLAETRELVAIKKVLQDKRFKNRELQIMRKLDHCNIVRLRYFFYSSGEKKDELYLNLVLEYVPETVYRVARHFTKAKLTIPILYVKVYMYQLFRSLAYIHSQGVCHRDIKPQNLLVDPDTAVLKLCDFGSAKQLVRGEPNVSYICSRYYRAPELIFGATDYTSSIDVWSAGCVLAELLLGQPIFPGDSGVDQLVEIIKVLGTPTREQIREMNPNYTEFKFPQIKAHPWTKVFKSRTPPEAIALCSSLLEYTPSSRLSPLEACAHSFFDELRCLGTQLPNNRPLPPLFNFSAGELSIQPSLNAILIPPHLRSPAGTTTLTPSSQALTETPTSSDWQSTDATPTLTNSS

[18] = molecular target: Mitogen-activated protein kinase 10 (Rattus norvegicus) (UniProt P49187); assay: Inhibition of JNK3 mediated anisomycin-induced APP phosphorylation in rat cortical neurons at 10 to 20 uM incubated for 24 hrs by Western blot analysis; format: cell-based; conditions: Cortical neuron, dose 10-20 µM
Sequence of Mitogen-activated protein kinase 10 (Rattus norvegicus) (P49187 whole entry): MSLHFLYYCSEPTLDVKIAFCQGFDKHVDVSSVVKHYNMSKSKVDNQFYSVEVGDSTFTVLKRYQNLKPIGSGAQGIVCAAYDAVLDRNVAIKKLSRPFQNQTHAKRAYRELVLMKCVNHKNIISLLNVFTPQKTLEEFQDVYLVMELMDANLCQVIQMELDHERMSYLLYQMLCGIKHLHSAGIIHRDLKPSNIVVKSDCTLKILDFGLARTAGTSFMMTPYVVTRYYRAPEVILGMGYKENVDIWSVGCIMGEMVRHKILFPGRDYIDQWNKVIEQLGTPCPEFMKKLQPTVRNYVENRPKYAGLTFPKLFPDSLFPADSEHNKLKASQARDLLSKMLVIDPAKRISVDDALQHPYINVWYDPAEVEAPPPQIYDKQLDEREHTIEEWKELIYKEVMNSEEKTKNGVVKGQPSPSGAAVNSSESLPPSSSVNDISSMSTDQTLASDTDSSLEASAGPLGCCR

[19] = Efflux ratio of apparent permeability basolateral to apical side over apical to basolateral side in human Caco-2 cells at 10 uM incubated for 1 hr by LC-MS/MS analysis; format: ADME, cell-based
[20] = Brain to Plasma ratio in Sprague-Dawley rat at 30 mg/kg, po measured at Tmax; format: ADME, organism-based; conditions: read-out: BPR
[21] = Toxicity in APP/PS1 mouse assessed as dead animal at 30 mg/kg, po treated 3 times/week for 1 month; format: organism-based; conditions: in vivo, 730 h, time 1 months
Mus musculus [22] = assay: Anti-alzheimer activity against APP/PS1 dE9 double transgenic mouse model assessed as escape latency time at 30 mg/kg, po administered 3 times/week for 1 month and measured after 27 days of treatment by Passive avoidance test (reference value: 18.5 +/- 2.3 sec); format: functional; conditions: time 27 day
Cortical neurone = assay: Neuroprotective activity against Amyloid beta (1 to 42)-induced toxicity in rat cortical neuron assessed as cell viability at 20 uM measured after 48 hrs by MTT assay; format: functional; conditions: read-out: Activity
[23] = Toxicity in APP/PS1 mouse assessed as weight change at 10 mg/kg, po treated 3 times/week for 1 month; format: organism-based; conditions: in vivo, 730 h, time 1 months
Mus musculus [24] = assay: Anti-alzheimer activity against homozygous 3 x Tg mouse model assessed as time spent in platform quadrant at 60 mg/kg, po administered daily for 2 months and measured after 27 days of treatment by Morris water maze test (reference value: 15.68 +/- 1.65 sec); format: functional; conditions: 1460 h
[25] = molecular target: Mitogen-activated protein kinase 8 (Homo sapiens, UniProt P45983); assay: Inhibition of human JNK1alpha1 assessed as incorporation of 33P-ATP
Sequence of Mitogen-activated protein kinase 8 (P45983 whole entry): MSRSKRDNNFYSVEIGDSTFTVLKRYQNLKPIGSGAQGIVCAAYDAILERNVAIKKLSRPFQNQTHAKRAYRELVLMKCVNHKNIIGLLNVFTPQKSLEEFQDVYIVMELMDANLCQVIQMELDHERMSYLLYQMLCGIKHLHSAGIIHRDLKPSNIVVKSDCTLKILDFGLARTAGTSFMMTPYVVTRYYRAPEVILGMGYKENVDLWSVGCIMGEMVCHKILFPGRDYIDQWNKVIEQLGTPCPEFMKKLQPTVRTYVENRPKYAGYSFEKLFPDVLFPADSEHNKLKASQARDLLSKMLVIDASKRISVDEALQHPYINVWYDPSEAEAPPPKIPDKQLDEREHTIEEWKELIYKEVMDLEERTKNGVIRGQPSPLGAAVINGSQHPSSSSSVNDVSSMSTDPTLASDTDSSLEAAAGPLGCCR

[26] = molecular target: Mitogen-activated protein kinase 14 (Homo sapiens, UniProt Q16539); assay: Inhibition of human SAPK2a assessed as incorporation of 33P-ATP
Sequence of Mitogen-activated protein kinase 14 (Q16539 whole entry): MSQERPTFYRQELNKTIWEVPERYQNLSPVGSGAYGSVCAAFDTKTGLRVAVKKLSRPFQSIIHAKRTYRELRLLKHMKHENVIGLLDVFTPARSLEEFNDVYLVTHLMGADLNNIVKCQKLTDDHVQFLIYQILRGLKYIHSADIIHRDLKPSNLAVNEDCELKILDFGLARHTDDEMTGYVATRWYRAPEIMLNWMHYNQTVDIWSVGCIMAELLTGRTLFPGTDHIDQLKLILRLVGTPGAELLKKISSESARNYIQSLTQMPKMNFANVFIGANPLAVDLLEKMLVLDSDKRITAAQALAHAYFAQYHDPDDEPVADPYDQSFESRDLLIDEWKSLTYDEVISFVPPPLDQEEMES

[27] = molecular target: Mitogen-activated protein kinase 10 (Rattus norvegicus) (UniProt P49187); assay: Inhibition of JNK3 in anisomycin-induced c-Jun phosphorylation in primary rat cortex neuron assessed as decrease in c-Jun phosphorylation at 20 uM pretreated for 90 mins followed by treated with anisomycin further incubated for 40 mins by Western blot analysis; format: cell-based; conditions: Primary cortical neuron
Mus musculus [28] = assay: Anti-alzheimer activity against homozygous 3 x Tg mouse model assessed as escape latency time at 60 mg/kg, po administered daily for 2 months and measured after 60 days of treatment by Passive avoidance test (reference value: 43.44 +/- 7.35 sec); format: functional; conditions: 1460 h
[29] = Cmax in Sprague-Dawley rat at 3 mg/kg, po measured upto 24 hrs by UPLC analysis; format: ADME, organism-based; design: dose 3 mg/kg, time < 24 hrs, route po; conditions: in vivo
Mus musculus [30] = assay: Anti-alzheimer activity against APP/PS1 dE9 double transgenic mouse model assessed as spontaneous alteration at 10 mg/kg, po administered 3 times/week for 1 month and measured after 27 days of treatment by Y-maze test (reference value: 46.70 +/- 3.32%); format: functional; conditions: time 1 months, 730 h

## N#CCc1cnc(-c2ccc3ccccc3c2)n1-c1ccnc(N[C@H]2CCCN(C(=O)C3CC3)C2)n1
Mus musculus [1]
  Time: 15.06 s
[2]
  half-life: 13.2 min
[3]
  IC50: 144 nM
Mus musculus [4]
  Time: 54.09 s
[5]
  IC50: 970 nM
[6]
  AUC at 24 h: 718 ng·h/mL
Mus musculus [7]
  Time: 31.7 s
Mus musculus [8]
  Activity: 50.97%
[9]
  IC50: 11700 nM
[10]
  Drug uptake: 26 ng/g
[11]
  bioavailability: 15.7%
Mus musculus [12]
  Activity: 56.55%
[13]
  Papp: 28.5 ×10⁻⁶ cm/s
[14]
  Activity: Non-Toxic
[15]
  Activity: Non-Toxic
[16]
  Cmax: 1080 ng/mL
[17]
  IC50: 5780 nM
[18]
  inhibition: Active
[19]
  efflux ratio at 1 h, 10 µM: 1.92
[20]
  Kp: 0.02
[21]
  Activity: Non-Toxic
Mus musculus [22]
  Time: 49.5 s
Cortical neurone
  viability at 20 µM: 46.8%
[23]
  Activity: Non-Toxic
Mus musculus [24]
  Time: 15.55 s
[25]
  IC50: 860 nM
[26]
  IC50: 310 nM
[27]
  Activity: Active
Mus musculus [28]
  Time: 59.82 s
[29]
  Cmax: 378 ng/mL
Mus musculus [30]
  Activity: 52.31%

From ChEMBL document CHEMBL5385844, “Discovery of novel imidazole chemotypes as isoform-selective JNK3 inhibitors for the treatment of Alzheimer's disease” (Eur J Med Chem, 2023)
